Measurements reported in patent publication US20250380702A1, “HERBICIDAL MIXTURES COMPRISING L-GLUFOSINATE OR ITS SALT AND A SECOND HERBICIDE” (BASF SE, priority 2022, published 2025).
Several values for one entry are separate records, joined by “and”; a condition that tells them apart may be missing. Equal values may be shown once. Read-outs that look alike come from different tables or passages of the source.

Tests used:
Experiment in all cases: Greenhouse post emergence treatment, herbicidal activity
KCHSC = type: in vivo, Bassia scoparia; conditions: for % activity: solo application, post emergence, 7 DAT
Text: (§1) Synergism can be described as an interaction where the combined effect of two or more compounds is greater than the sum of the individual effects of each of the compounds. The presence of a synergistic effect in terms of percent control, between two mixing partners (X and Y) can be calculated using the Colby equation (Colby, S. R., 1967, Calculating Synergistic and Antagonistic Responses in Herbicide Combinations, Weeds, 15, 21-22):
(§2) When the observed combined control effect is greater than the expected (calculated) combined control effect (E), then the combined effect is synergistic.
(§3) The culture containers used were plastic flowerpots containing loamy sand with approximately 3.0% of humus as the substrate. The seeds of the test plants were sown separately for each species and/or resistant biotype. For the pre-emergence treatment, the active ingredients, which had been suspended or emulsified in water, were applied directly after sowing by means of finely distributing nozzles. The containers were irrigated gently to promote germination and growth and subsequently covered with transparent plastic hoods until the plants had rooted. This cover caused uniform germination of the test plants, unless this had been impaired by the active ingredients. For the post-emergence treatment, the test plants were first grown to a height of 3 to 15 cm, depending on the plant habit, and only then treated with the active ingredients which had been suspended or emulsified in water. For this purpose, the test plants were either sown directly and grown in the same containers, or they were first grown separately as seedlings and transplanted into the test containers a few days prior to treatment. Depending on the species, the plants were kept at 10-25° C. or 20-35° C., respectively. The test period extended to 20 days after treatment. During this time, the plants were tended, and their response to the individual treatments was evaluated. The evaluation was carried out by using a scale from 0 to 100. 100 means no emergence of the plants or complete destruction of at least the above-ground parts, and 0 means no damage, or normal course of growth.
(§4) As indicated in the respective examples, assessment was either after 7 days or 20 days after treatment (DAT).

AVEFA = type: in vivo, Avena fatua; conditions: solo application, 7 DAT
Text: as §1, §2, §3, §4

CHEAL = type: in vivo, Chenopodium album; conditions: solo application, 7 DAT
Text: as §1, §2, §3, §4

POLAV = type: in vivo, Polygonum aviculare; conditions: solo application, 7 DAT
Text: as §1, §2, §3, §4

ABUTH = type: in vivo, Abutilon theophrasti; conditions: solo application; for inhibition at 250 g/ha: Abutilon theophrasti, 250 gai/ha
Text: as §1, §2, §3, §4

Volunteer HORVS = type: in vivo, Volunteer Barley; conditions: for % activity: solo application, post emergence
Text: as §1, §2, §3, §4

[1] = Bassia scoparia, post-emergence, 168 h, read-out: % activity

CP(=O)(O)CC[C@H](N)C(=O)O.N [L-Glu, ammonium (2S)-2-amino-4-(methylphosphinato) butyric acid]
inhibition at 250 g/ha (KCHSC; [1]): 88%
inhibition at 500 g/ha (KCHSC; [1]): 88%
inhibition at 1000 g/ha (KCHSC; [1]): 90%
inhibition at 500 g/ha (AVEFA; Avena fatua, 168 h, 500 gai/ha): 90%
inhibition at 1000 g/ha (AVEFA; Avena fatua, 168 h, 1000 gai/ha): 90%
inhibition at 500 g/ha (CHEAL; Chenopodium album, 168 h, 500 gai/ha): 95%
inhibition at 1000 g/ha (CHEAL; Chenopodium album, 168 h, 1000 gai/ha): 95%
inhibition at 500 g/ha (POLAV; Polygonum aviculare, 168 h, 500 gai/ha): 95%
inhibition at 1000 g/ha (POLAV; Polygonum aviculare, 168 h, 1000 gai/ha): 95%
inhibition at 250 g/ha (ABUTH; 168 h, 7 DAT): 75%
inhibition at 250 g/ha (ABUTH; 480 h, 20 DAT): 60%
inhibition at 125 g/ha (Volunteer HORVS; Hordeum vulgare, post-emergence, 168 h, read-out: % activity, solo application, 125 gai/ha, post emergence, 7 DAT): 90%
inhibition at 250 g/ha (Volunteer HORVS; Hordeum vulgare, post-emergence, 168 h, read-out: % activity, solo application, 250 gai/ha, post emergence, 7 DAT): 90%
inhibition at 500 g/ha (Volunteer HORVS; Hordeum vulgare, post-emergence, 168 h, read-out: % activity, solo application, 500 gai/ha, post emergence, 7 DAT): 95%
inhibition at 250 g/ha (Volunteer HORVS; Hordeum vulgare, post-emergence, 480 h, read-out: % activity, solo application, 250 gai/ha, post emergence, 20 DAT): 75%
inhibition at 500 g/ha (Volunteer HORVS; Hordeum vulgare, post-emergence, 480 h, read-out: % activity, solo application, 500 gai/ha, post emergence, 20 DAT): 85%
% activity (Volunteer HORVS; 125 gai/ha, 20 DAT): 65% and 35%

CN1C[C@H](c2cccc(C(F)(F)F)c2)[C@@H](C(=O)Nc2ccccc2F)C1=O [Tetflupyrolimet]
% activity (KCHSC; 25 gai/ha): 0%
% activity (KCHSC; 50 gai/ha): 0%
% activity (KCHSC; 100 gai/ha): 2.5%
% activity (AVEFA; 50 gai/ha): 0%
% activity (AVEFA; 100 gai/ha): 0%
% activity (CHEAL; 50 gai/ha): 15%
% activity (CHEAL; 100 gai/ha): 25%
% activity (POLAV; 50 gai/ha): 5%
% activity (POLAV; 100 gai/ha): 5%
% activity (ABUTH; 25 gai/ha, 7 DAT): 0%
% activity (ABUTH; 25 gai/ha, 20 DAT): 0%
% activity (ABUTH; 100 gai/ha, 7 DAT): 0%
% activity (ABUTH; 100 gai/ha, 20 DAT): 0%
% activity (Volunteer HORVS; 12.5 gai/ha, 7 DAT): 0%
% activity (Volunteer HORVS; 12.5 gai/ha, 20 DAT): 5% and 0%
% activity (Volunteer HORVS; 25 gai/ha, 7 DAT): 0%
% activity (Volunteer HORVS; 25 gai/ha, 20 DAT): 5%
% activity (Volunteer HORVS; 50 gai/ha, 7 DAT): 0%
% activity (Volunteer HORVS; 50 gai/ha, 20 DAT): 5%
% activity (Volunteer HORVS; 100 gai/ha, 7 DAT): 5%
